From patent publication US20240376073A1 (Hoffmann-La Roche Inc., priority 2021, published 2024)
Counter-ions that a name gives are not always drawn. Like-named read-outs stand apart in the source and are kept apart here.

Tested on: Acinetobacter baumannii ATCC17961
Assay: Antimicrobial susceptibility testing: 90% growth inhibitory concentration (IC90) determination
Format: cell-based
Conditions: Iso-Sensitest broth, growth by OD 600 nm over 16 h, 35±2° C.
Experimental: The in vitro antimicrobial activity of the compounds was determined according to the following procedure:
The assay used a 10-points Iso-Sensitest broth medium to measure quantitatively the in vitro activity of the compounds against Acinetobacter baumannii ATCC17961.
Stock compounds in DMSO were serially twofold diluted (e.g. range from 50 to 0.097 μM final concentration) in 384 wells microtiter plates and inoculated with 49 μl the bacterial suspension in Iso-Sensitest medium to have a final cell concentration of ˜5×10^(5) CFU/ml in a final volume/well of 50 ul/well. Microtiter plates were incubated at 35±2° C.
Bacterial cell growth was determined with the measurement of optical density at λ=600 nm each 20 minutes over a time course of 16 h. Growth inhibition was calculated during the logarithmic growth of the bacterial cells with determination of the concentration inhibiting 50% (IC50) and 90% (IC90) of the growth.
Table 1 provides the […] growth inhibitory concentrations (IC90) in micromoles per liter of the compounds of present invention obtained against the strain Acinetobacter baumannii ATCC17961.

[1] = Acinetobacter baumannii, ATCC17961, 16 h, read-out: ATCC 17961 IC90, Acinetobacter baumannii ATCC17961
[2] = Acinetobacter baumannii ATCC17961, read-out: ATCC 17961 IC90

Compound | IC90 [1] | IC90 [2]
Cn1c(-c2ccc(OC(F)F)c(F)c2F)cnc1C(=O)Nc1ccc(C(=O)N2CCN(C(=O)[C@@H]3C[C@@H](O)C[N+]3(C)C)CC2)c(Cl)c1 [Example B41, N-[3-chloro-4-[4-[(2S,4R)-4-hydroxy-1,1-dimethyl-pyrrolidin-1-ium-2-carbonyl]piperazine-1-carbonyl]phenyl]-5-[4-(difluoromethoxy)-2,3-difluoro-phenyl]-1-methyl-imidazole-2-carboxamide; formate] | 76 nM | 
COc1ccc(-c2cnc(C(=O)Nc3ccc(C(=O)N4CCN(C(=O)[C@@H]5[C@@H](O)[C@@H](O)C[N+]5(C)C)CC4)c(Cl)c3)n2C)c(F)c1F [Example B50, N-[3-chloro-4-[4-[(2S,3R,4S)-3,4-dihydroxy-1,1-dimethyl-pyrrolidin-1-ium-2-carbonyl]piperazine-1-carbonyl]phenyl]-5-(2,3-difluoro-4-methoxy-phenyl)-1-methyl-imidazole-2-carboxamide formate] | 250 nM | 
Cn1c(-c2ccc(OCC#N)c(F)c2F)cnc1C(=O)Nc1ccc(C(=O)NCCNC(=O)C[N+](C)(C)C)c(Cl)c1 [Example A14, [2-[2-[2-chloro-4-[[5-[4-(cyanomethoxy)-2,3-difluoro-phenyl]-1-methyl-imidazole-2-carbonyl]amino]benzoyl]amino]ethylamino]-2-oxo-ethyl]-trimethyl-ammonium formate] |  | 600 nM
COc1ccc(-c2cnc(C(=O)Nc3ccc(C(=O)N[C@H]4[C@@H]5CN(C(=O)N[C@@H]6C[N+](C)(C)C[C@H]6O)C[C@@H]54)c(Cl)c3)n2C)c(F)c1F [Example B55, (exo)-6-[[2-chloro-4-[[5-(2,3-difluoro-4-methoxy-phenyl)-1-methyl-imidazole-2-carbonyl]amino]benzoyl]amino]-N-[(trans)-4-hydroxy-1,1-dimethyl-pyrrolidin-1-ium-3-yl]-3-azabicyclo[3.1.0]hexane-3-carboxamide formate] |  | 150 nM
COc1ccc(-c2cnc(C(=O)Nc3ccc(C(=O)N4CCN(C(=O)C5CC[N+](C)(CC(N)=O)CC5)CC4)c(Cl)c3)n2C)c(Cl)c1F (stereo not drawn) [Example C3, N-[4-[4-[1-(2-amino-2-oxo-ethyl)-1-methyl-piperidin-1-ium-4-carbonyl]-piperazine-1-carbonyl]-3-chloro-phenyl]-5-(2-chloro-3-fluoro-4-meth-oxy-phenyl)-1-methyl-imid-azole-2-carbox-amide; formate] |  | 57 nM
COc1ccc(-c2cnc(C(=O)Nc3ccc(C(=O)N4CCN(C(=O)[C@@H]5C[C@@H](O)C[N+]5(C)C)CC4)c(Cl)c3)n2C)c(F)c1C#N [Example B51, N-[3-chloro-4-[4-[(2S,4R)-4-hydroxy-1,1-dimethyl-pyrrolidin-1-ium-2-carbonyl]piperazine-1-carbonyl]phenyl]-5-(3-cyano-2-fluoro-4-methoxy-phenyl)-1-methyl-imidazole-2-carboxamide; formate] | 540 nM | 
COc1ccc(-c2cnc(C(=O)Nc3ccc(C(=O)N4CCC(NC(=O)C[N+](C)(C)CC(N)=O)CC4)c(Cl)c3)n2C)c(F)c1F [Example B5, (2-amino-2-oxo-ethyl)-[2-[1-[2-chloro-4-[5-(2,3-difluoro-4-methoxy-phenyl)-1-methyl-imidazole-2-carbonyl]amino]benzoyl]-4-piperidyl]amino]-2-oxo-ethyl]-dimethyl-ammonium; formate] |  | 120 nM
COc1ccc(-c2cnc(C(=O)Nc3ccc(C(=O)N4CCN(C(=O)C5CCN(C(=O)C[N+](C)(C)C)CC5)CC4)c(Cl)c3)n2C)c(F)c1F [Example C6, [2-[4-[4-[2-chloro-4-[5-(2,3-difluoro-4-methoxy-phen-yl)-1-methyl-imidazole-2-carbonyl]amino]-benzoyl]piper-azine-1-carbon-yl]-1-piperidyl]-2-oxo-ethyl]-trimethyl-ammonium; formate] |  | 160 nM
COc1ccc(-c2cnc(C(=O)Nc3ccc(C(=O)N4CCN(C(=O)[C@@H]5C[C@@H](O)C[N+]5(C)C)CC4)c(Cl)c3)n2C)c(F)c1F [Example B25, (2S,4R)-2-(4-(2-chloro-4-(5-(2,3-difluoro-4-methoxyphenyl)-1-methyl-1H-imidazole-2-carboxamido)benzoyl)piperazine-1-carbonyl)-4-hydroxy-1,1-dimethylpyrrolidin-1-ium formate] |  | 120 nM
COc1ccc(-c2cnc(C(=O)Nc3ccc(C(=O)N4CCN(C(=O)C5CCN(C(=O)C[N+](C)(C)CC(N)=O)CC5)CC4)c(Cl)c3)n2C)c(F)c1F [Example C7, (2-amino-2-oxo-ethyl)-[2-[4-[4-[2-chloro-4-[[5-(2,3-difluoro-4-methoxy-phenyl)-1-meth-yl-imidazole-2-carbonyl]amino]-benzoyl]piper-azine-1-carbon-yl]-1-piperidyl]-2-oxo-ethyl]-dimethyl-ammo-nium; formate] |  | 250 nM
COc1ccc(-c2cnc(C(=O)Nc3ccc(C(=O)N4CCN(C(=O)[C@@H]5C[C@@H](CO)C[N+]5(C)C)CC4)c(Cl)c3)n2C)c(F)c1F [Example B42, N-[3-chloro-4-[4-[(2S,4R)-4-(hydroxymethyl)-1,1-dimethyl-pyrrolidin-1-ium-2-carbonyl]piperazine-1-carbonyl]phenyl]-5-(2,3-difluoro-4-methoxy-phenyl)-1-methyl-imidazole-2-carboxamide; formate] | 140 nM | 
COc1ccc(-c2cnc(C(=O)Nc3ccc(C(=O)N[C@H]4C[C@@H](NCC[N+](C)(C)C)C4)c(Cl)c3)n2C)c(F)c1F [Example A11, 2-[[3-[[2-chloro-4-[[5-(2,3-difluoro-4-methoxy-phenyl)-1-methyl-imidazole-2-carbonyl]amino]benzoyl]amino]cyclobutyl]amino]ethyl-trimethyl-ammonium; formic acid; formate] |  | 570 nM
Cc1cc(NC(=O)c2ncc(-c3ccc(OCC#N)c(F)c3F)n2C)ccc1C(=O)N[C@H]1C[C@@H](NC(=O)C[N+](C)(C)C)C1 [Example A18, [2-[[3-[[4-[5-[4-(cyanomethoxy)-2,3-difluoro-phenyl]-1-methyl-imidazole-2-carbonyl]amino]-2-methyl-benzoyl]amino]cyclobutyl]amino]-2-oxo-ethyl]-trimethyl-ammonium formate] |  | 240 nM
Cn1c(-c2ccc(OCC#N)c(F)c2F)cnc1C(=O)Nc1ccc(C(=O)N2CCN(C(=O)C[N+](C)(C)CC(N)=O)CC2)c(Cl)c1 [Example B4, (2-amino-2-oxo-ethyl)-[2-[4-[2-chloro-4-[[5-[4-(cyanomethoxy)-2,3-difluoro-phenyl]-1-methyl-imidazole-2-carbonyl]amino]benzoyl]piperazin-1-yl]-2-oxo-ethyl]-dimethyl-ammonium; formate] |  | 110 nM
Cn1c(-c2ccc(OC(F)F)c(F)c2F)cnc1C(=O)Nc1ccc(C(=O)N2CCN(C(=O)CC3CC[N+](C)(CC4CCNC4)C3)CC2)c(Cl)c1 (stereo not drawn) [Example C18, N-[3-chloro-4-[4-[2-[1-methyl-1-(pyrrolidin-3-yl-methyl)pyrrol-idin-1-ium-3-yl]-acetyl]piperazine-1-carbonyl]phen-yl]-5-[4-(difluoro-methoxy)-2,3-difluoro-phenyl]-1-methyl-imid-azole-2-carbox-amide; 2,2,2-trifluoroacetate; 2,2,2-trifluoro-acetic acid] |  | 220 nM
